Measured values from patent US5071848A, “Tricyclic quinoline antineoplastic agents” (Abbott Laboratories, priority 1989, dated 1991).
In brackets after ≈: the same amount, converted by molar mass. Entries after “also recorded” stand apart in the source; their conditions may differ. Like-named read-outs stand apart in the source and are kept apart here.

Columns and labels:
A549 cell line = test: In vitro cytotoxicity assay (three day MTT microtiter assay), A549; format: cell-based; conditions: Homo sapiens, read-out: In vitro tumor cell cytotoxicity (IC50), A549
Method: (§1) IC50 's were measured in a colorimetric assay for cytotoxic activity against cultured cells according to the protocol described below:
(§2) A three day microtiter assay is used to measure the growth inhibition of cultured cells exposed to a range of drug concentrations. Metabolic activity is measured by the cell's ability to reduce the tetrazolium dye, MTT (3-(4,5-dimethylthiazol-2-yl)-2,5-diphenyltetrazolium bromide) to a quantifiable colored end-product, which absorbs at 570 nm in the visible spectrum. Surviving cells reduce the MTT dye.
(§3) Test compounds are dissolved in dimethyl sulfoxide (DMSO) and diluted, first with Earle's Balanced Salt Solution, followed by culture medium, to twice the highest concentration of compound to be tested. From this concentrated stock, two-fold serial dilutions are prepared in 96-well microtiter trays, each well containing twice the desired final concentration of compound. Each concentration is tested in triplicate and compared to triplicate drug-free controls.
(§4) The cells are grown in the same medium used for diluting the compounds. After harvesting by trypsinization*, viable cell counts are determined and cell density is adjusted to 25,000 cells/mL. Inoculum (0.1 mL), containing the cells, is then added to each well for a final concentration of 2,500 cells per well. Addition of the inoculum dilutes the test compounds to the desired final concentration.
(§5) *Adherent cells are harvested by trypsinization as follows:
(§6) 1. Remove the medium by aspiration.
(§7) 2. Rinse cell monolayer twice with Earle's Balanced Salt Solution.
(§8) 3. Add trypsin (0.05%)/EDTA (0.53 mM). For each 25 cm^2 use approximately 0.2 mL of solution, tilt to cover the monolayer, then withdraw trypsin leaving only a thin film of solution. Incubate at room temperature until cell monolayer detaches.
(§9) 4. When the cells have detached as determined by visual and/or microscopic observation, add medium containing fetal calf serum to stop the action of the trypsin and resuspend the cells. Triturate to aid dissociation of cell clumps.
(§10) 5. Determine the number of cells per milliliter by electronic cell counter (e.g. Coulter Counter) or by mixing an aliquot of cell suspension with Trypan Blue (0.4% in normal saline) and counting the viable cells using a hemacytometer.
(§11) Microtiter trays are incubated for three days at 36° C. in a humidified atmosphere containing 5% carbon dioxide.
(§12) After three days, 20 microtiters of 5 mg/mL MTT in phosphate-buffered saline solution is added to each well. Trays are returned to the incubator for two to four hours to allow the surviving cells to reduce the dye. Medium and unreduced dye are removed by aspiration. DMSO is added to each well to dissolve the water insoluble, colored end product of the dye reduction so that it can be measured spectrophotometrically at 570 nm.

[1] = tested on: P388.D1 leukemia cell line; test: In vitro cytotoxicity assay (three day MTT microtiter assay), P388.D1; format: cell-based; conditions: Mus musculus, P388D1, 72 h, read-out: In vitro tumor cell cytotoxicity (IC50), P388.D1
Method: (§13) The cytotoxity of the compounds of the present invention is illustrated in Table 6. IC50 's were measured in a colorimetric assay for cytotoxic activity against cultured cells according to the protocol described below:
as §2, §3, §4, §5, §6, §7, §8, §9, §10, §11
After three days, 20 microtiters of 5 mg/mL MTT in phosphate-buffered saline solution is added to each well. Trays are returned to the incubator for two to four hours to allow the surviving cells to reduce the dye. Medium and unreduced dye are removed by aspiration. DMSO is added to each well to dissolve the water insoluble, colored end product of the dye reduction so that it can be measured spectrophotometrically at 570 nm. The IC50 is determined as the concentration of compound tested required to reduce the absorbance at 570 nm to 50% of non-drug treated control values.
^c P388 D1 is a leukemia cell line.

Hela cells = test: In vitro cytotoxicity assay (three day MTT microtiter assay), Hela; format: cell-based; conditions: Homo sapiens, 72 h, read-out: In vitro tumor cell cytotoxicity (IC50), Hela
Method: as §1, §2, §3, §4, §5, §6, §7, §8, §9, §10, §11, §12

DNA topoisomerases = conditions: in words; known antitumor drugs; cited from earlier work
[2] = tested on: HCT-8 colon cancer cell line; test: In vitro cytotoxicity assay (three day MTT microtiter assay), HCT-8; format: cell-based, human; conditions: read-out: In vitro tumor cell cytotoxicity (IC50), HCT-8
Method: as §1, §2
Test compounds are dissolved in dimethyl sulfoxide (DMSO) and diluted, first with Earle's Balanced Salt Solution, followed by culture medium, to twice the highest concentration of compound to be tested. […]
The cells are grown in the same medium used for diluting the compounds. After harvesting by trypsinization*, viable cell counts are determined and cell density is adjusted to 25,000 cells/mL. […]
(§14) 4. When the cells have detached as determined by visual and/or microscopic observation, add medium containing fetal calf serum to stop the action of the trypsin and resuspend the cells. […]
After three days, 20 microtiters of 5 mg/mL MTT in phosphate-buffered saline solution is added to each well. […] DMSO is added to each well to dissolve the water insoluble, colored end product of the dye reduction so that it can be measured spectrophotometrically at 570 nm.

[3] = tested on: Lewis Lung carcinoma (LL); test: In vivo antitumor activity, Lewis Lung carcinoma (LL), tumor weight inhibition; parameters: species or system BDF1 mice; conditions: IP, day 1 to day 9, determined on day 14
Method: (§15) The in vivo data presented in Table 7 was determined in BDF1 mice for two murine cancer models, using 6 to 10 animals per test group. In the case of Lewis Lung carcinoma (LL) the mice are inoculated subcutaneously (SC) in the axillary region with a puncture in the inguinal area with the tumor on day 0. The compound being tested is administered intraperitoneally (IP) from day 1 to day 9 for a total of nine injections. The tumors are weighed on day 14 and the weight inhibition expressed as the median weight ratio of treated (T) to control (C) tumors. In the case of P388 Leukemia cells, a suspension of diluted ascites fluid (0.1 mL) containing 1×10^6 cells is implanted IP into the mice on day 0 and the compound being tested is administered IP from day 1 to day 5 for a total of five injections. Survival was monitored for 30 days and the increased lifespan expressed as median survival time of treated (T) to control (C) mice.

P388 Leukemia = test: In vivo antitumor activity, P388 Leukemia, increased lifespan; parameters: species or system BDF1 mice; conditions: IP, day 1 to day 5, survival monitored 30 days
Method: as §15

DNA topoisomerase II = test: DNA Breakage Assay: topoisomerase II-mediated DNA breakage (linearized 32P-labeled PBR 322 plasmid, agarose gel); format: biochemical, calf; parameters: key to Topoisomerase II-mediated DNA breakage, extent of breakage: SB: strong breakage; MB: moderate breakage; WB: weak breakage; conditions: for Topoisomerase II-mediated DNA breakage, extent of breakage: at the concentration given; for Topoisomerase II-mediated DNA breakage, Concentration: concentration of compound which cleaves the DNA to smaller fragments, 30 minutes incubation
Method: Antitumor activity was assayed using the DNA Breakage Assay described below.
The DNA breakage assay requires two major reagents: DNA topoisomerase II and radiolabeled DNA. DNA topoisomerase II (topo II) was isolated from calf thymus as described by B. D. Holligan, et al. in J. Biol. Chem., 260, 2475-2482 (1985). Pure enzyme or partially purified extracts enriched in topo II activity may be used. PBR 322 plasmid was used as the DNA substrate. This plasmid, which is isolated in the closed circular form, is first linearized using, a restriction enzyme which cuts the plasmid in only one place. The newly exposed ends of the plasmid are then labeled with the radionuclide, 32P, using standard techniques described by T. Maniatis, et al. in "Molecular Cloning", Cold Spring Harbor Press, p. 115 (1982).
The enzyme and the radiolabeled DNA are added together first, then drug is added. After an incubation period of 30 minutes, the mixtures are quenched using 1% SDS. The mixtures are then subjected to agarose gel electrophoresis which separates the full length, linear substrate DNA from any small fragments that might be formed as a consequence of drug action. Smaller fragments run with a higher mobility. The distribution of the DNA species in the gel is assessed by autoradiography as described by T. Maniatis, et al. in "Molecular Cloning", Cold Spring Harbor Press, p. 115 (1982).
DNA breakage activity is assessed based on the level of substrate lost, the level of DNA appearing as smaller pieces running faster in the gel, and the distribution of these smaller pieces in the gel. The last criterion is important since drug-induced DNA cleavage that is enzyme-mediated fragmentation results in specific banding patterns due to the fact that the enzyme binds to specific sequences along the DNA molecule. A definite banding pattern is thus indicative of topo II-mediated cleavage and correlates well with anti-tumor activity.

[4] = tested on: Lewis Lung Carcinoma (LLC1) cells; test: In vitro cytotoxicity assay (three day MTT microtiter assay), LLC1; format: cell-based, murine; conditions: Mus musculus, LLC1, 72 h; Lewis Lung Carcinoma, three days, MTT; read-out: In vitro tumor cell cytotoxicity (IC50), LLC1
Method: as §13, §2, §3, §4, §5, §6, §7
3. […]
as §14
After three days, 20 microtiters of 5 mg/mL MTT in phosphate-buffered saline solution is added to each well. […] DMSO is added to each well to dissolve the water insoluble, colored end product of the dye reduction so that it can be measured spectrophotometrically at 570 nm. […]

Compound | IC50 (A549 cell line; A549, 72 h) | IC50 [1] | IC50 (Hela cells; HeLa) | effect on DNA topoisomerase-mediated DNA breakage-rejoining / cleavage (DNA topoisomerases) | IC50 ([2]; Homo sapiens, HCT-8, 72 h) | IC50 (A549 cell line; 72 h, A549, three days, MTT) | LL (T/C), median weight ratio of treated to control tumors ([3]; 31.5 mg/kg) | LL (T/C), median weight ratio of treated to control tumors ([3]; 62.5 mg/kg) | LL (T/C), median weight ratio of treated to control tumors ([3]; 125 mg/kg) | LL (T/C), median weight ratio of treated to control tumors ([3]; 250 mg/kg) | P388 Leukemia % T/C, median lifespan of treated compared to control mice (P388 Leukemia; 31.5 mg/kg) | P388 Leukemia % T/C, median lifespan of treated compared to control mice (P388 Leukemia; 62.5 mg/kg) | P388 Leukemia % T/C, median lifespan of treated compared to control mice (P388 Leukemia; 125 mg/kg) | P388 Leukemia % T/C, median lifespan of treated compared to control mice (P388 Leukemia; 250 mg/kg) | Topoisomerase II-mediated DNA breakage, extent of breakage (DNA topoisomerase II) | Topoisomerase II-mediated DNA breakage, Concentration (DNA topoisomerase II) | IC50 ([2]; 72 h, HCT-8 human colon cancer, three days, MTT) | IC50 [4] | IC50 (Hela cells; Hela cells, three days, MTT)
COc1cc([C@@H]2c3cc4c(cc3[C@@H](O[C@@H]3O[C@@H]5CO[C@@H](C)O[C@H]5[C@H](O)[C@H]3O)[C@H]3COC(=O)[C@H]23)OCO4)cc(OC)c1O [Etoposide, etoposide, reference compound] | 1 µg/mL (≈ 1.7 µM) | 0.05 µg/mL (≈ 0.085 µM) | 4 µg/mL (≈ 6.8 µM) | found to affect the breakage-rejoining reaction of mammalian DNA mediated by DNA topoisomerases; also recorded: known to act by inducing topo II mediated DNA cleavage | 0.68 µg/mL (≈ 1.16 µM) |  |  |  |  |  |  |  |  |  |  |  |  |  | 
CC1CN(c2c(F)cc3c(=O)c4c(=O)[nH]sc4n(C4CC4)c3c2F)CCN1 (stereo not shown) [Example 3] |  | 3.1 µg/mL (≈ 7.9 µM) |  |  |  | 8.3 µg/mL (≈ 21.2 µM) | 0.81 | 0.75 | 0.59 | 0.35 | 145% | 145% | 160% | 160% | SB | 32 µg/mL | 14 µg/mL (≈ 35.7 µM) |  | 
NC1CCN(c2c(F)cc3c(=O)c4c(=O)[nH]sc4n(C4CC4)c3c2F)C1 (stereo not shown) [Example 11] |  |  |  |  |  |  |  |  |  |  |  |  |  |  | SB | 32 µg/mL |  | 0.52 µg/mL (≈ 1.37 µM) | 0.95 µg/mL (≈ 2.51 µM)
